In patent publication US8598193B2, “Polycyclic agents for the treatment of respiratory syncytial virus infections” (Biota Scientific Management Pty Ltd., priority 2003, dated 2013):
Values after ≈ are worked out from the molar mass of the structure shown.

tested on: RSV A2; test: RSV antiviral cytopathic effect (CPE) assay, MTT readout; assay type: cell-based; settings: human respiratory syncytial virus, HEp-2, 120 h, read-out: Activity Range (RSV A2 antiviral EC50), compounds of Table 2
Procedure: Method Q: RSV Antiviral Assay Protocol
Compounds of the invention were tested for their antiviral activity against respiratory syncytial virus. Cytopathic effect (CPE) assays were performed essentially as described in the literature (see for example Watanabe et al, 1. Virological Methods, 1994, 48, 257). Serial dilutions of the test compounds were made in assay medium. HEp2 cells (1.0×10^4 cells/well) were infected with RSV at a low multiplicity of infection (e.g. RSV A2 at an moi of 0.01) and 100 μL added to cultures assessing antiviral activity and cells without virus added to those assessing compound cytotoxicity. Assays were incubated for approximately 5 days at 37° C. in a 5% CO2 atmosphere. The extent of CPE was determined via metabolism of the vital dye 3-(4,5-dimethylthiaxol-2-yl)-2,5-diphenyltetrazolium bromide (MTT). A 3 mg/ml stock of MTT was made in assay medium and 100 μL added to each well, taking the final MTT concentration to […]. After 2 hours incubation at 37° C., the media-MTT solution was removed and 200 μL of isopropanol was added to dissolve the vital dye crystals. Plates were shaken and the absorbance read at 540 nm. The compound concentrations that inhibited CPE by 50% (EC50) and developed cytotoxicity (CC50) were calculated using an Excel curve fitting program.

| Structure (SMILES) | EC50 [µg/mL] |
| --- | --- |
| Cc1nnsc1C(=O)N1CCN2C(=O)c3ccccc3C21c1ccc(Cl)cc1 (centres unmarked) [Compound 184] | < 0.1 |

same assay, conditions: human respiratory syncytial virus, HEp-2, 120 h; RSV A2 in HEp2 cells, CPE assay, MTT, approx. 5 days; read-out: Activity Range (RSV A2 antiviral EC50), compounds of Table 2

| Structure (SMILES) | EC50 [µg/mL] |
| --- | --- |
| COc1ccc(CNC(=O)N2CCN3C(=O)c4ccccc4C23c2ccc(Cl)cc2)cc1 (centres unmarked) [Compound 180] | 0.25 to 1 (≈ 0.558 to 2.23 µM) |
| COc1ccc(NC(=O)N2CCN3C(=O)c4ccccc4C23c2ccc(C)cc2)cc1 (centres unmarked) [Compound 86] | 0.1 to 0.25 (≈ 0.242 to 0.605 µM) |
| CCC(=O)N1CCN2C(=O)c3ccccc3C12c1ccc(C)cc1 (centres unmarked) [Compound 117] | 0.25 to 1 (≈ 0.78 to 3.12 µM) |
| Cc1nc(C(=O)N2CCN3C(=O)c4ccccc4C23c2ccc(Cl)cc2)cs1 (centres unmarked) [Compound 188] | 0.25 to 1 (≈ 0.61 to 2.44 µM) |
| O=C(c1ccco1)N1CCN2C(=O)c3ccccc3C12c1ccc(Cl)cc1 (centres unmarked) [Compound 219] | < 0.1 |
| CCc1ccc(C23c4ccccc4C(=O)N2CCN3C(=O)Cc2ccc(OC)cc2)cc1 (centres unmarked) [Compound 190] | 0.25 to 1 (≈ 0.586 to 2.34 µM) |
| COc1ccc(NC(=O)N2CCN3C(=O)c4ccccc4C23c2ccc(Cl)cc2)cc1 (centres unmarked) [Compound 85] | 0.1 to 0.25 (≈ 0.23 to 0.576 µM) |
| O=C1c2ccccc2C2(c3ccc(Cl)cc3)N1CCN2C(=O)c1nsc(Cl)c1Cl (centres unmarked) [Compound 331] | 0.25 to 1 (≈ 0.538 to 2.15 µM) |
| CCc1ccc(C23c4ccccc4C(=O)N2CCN3C(=O)c2ccc(F)cc2)cc1 (centres unmarked) [Compound 191] | < 0.1 |
| O=C(c1ccc(F)cc1)N1CCN2C(=O)c3ccccc3C12c1ccc(C(F)(F)F)cc1 (centres unmarked) [Compound 307] | 0.1 to 0.25 (≈ 0.227 to 0.568 µM) |
| O=C(c1ccc(F)cc1)N1CCN2C(=O)c3ccccc3C12c1ccc(OCc2ccccc2)cc1 (centres unmarked) [Compound 262] | 0.1 to 0.25 (≈ 0.209 to 0.522 µM) |
| O=C1c2ccccc2C2(c3ccc(Cl)cc3)N1CCN2C(=O)C1Cc2ccccc21 (centres unmarked) [Compound 218] | 0.25 to 1 (≈ 0.603 to 2.41 µM) |
| Cc1cc(C(=O)N2CCN3C(=O)c4ccccc4C32c2ccc(Cl)cc2)c(C)o1 (centres unmarked) [Compound 325] | < 0.1 |
| O=C(c1ccc(F)cc1)N1CCN2C(=O)c3ccccc3C12c1cccc(Cl)c1 (centres unmarked) [Compound 144] | 0.1 to 0.25 (≈ 0.246 to 0.614 µM) |
| COc1ccc(-c2ocnc2C(=O)N2CCN3C(=O)c4ccccc4C32c2ccc(Cl)cc2)cc1 (centres unmarked) [Compound 332] | < 0.1 |
| O=C(c1ccc(F)cc1)N1CCN2C(=O)c3ccccc3C12c1ccc(Br)cc1 (centres unmarked) [Compound 234] | < 0.1 |

| Structure (SMILES) | EC50 [µg/mL] |
| --- | --- |
| COc1ccc(CCC(=O)N2CCN3C(=O)c4ccccc4C23c2ccc(Cl)cc2)cc1 (centres unmarked) [Compound 211] | 0.25 to 1 (≈ 0.559 to 2.24 µM) |
| O=C(NCc1ccc(F)cc1)N1CCN2C(=O)c3ccccc3C12c1ccc(Cl)cc1 (centres unmarked) [Compound 87] | 0.1 to 0.25 (≈ 0.229 to 0.574 µM) |
| O=C(c1ccc(F)cc1)N1CCN2C(=O)c3ccccc3C12c1ccc(OCCCCCl)cc1 (centres unmarked) [Compound 264] | 0.25 to 1 (≈ 0.522 to 2.09 µM) |
| O=C(CSc1ccccn1)N1CCN2C(=O)c3ccccc3C12c1ccc(Cl)cc1 (centres unmarked) [Compound 299] | 0.25 to 1 (≈ 0.573 to 2.29 µM) |
| O=C(c1ccc(F)nc1)N1CCN2C(=O)c3ccccc3C12c1ccc(OCC2CC2)cc1 (centres unmarked) [Compound 316] | < 0.1 |
| O=C(c1ccc(F)cc1)N1CCN2C(=O)c3ccccc3C12c1ccc(F)cc1 (centres unmarked) [Compound 231] | 0.25 to 1 (≈ 0.64 to 2.56 µM) |
| O=C(c1ccc(F)nc1)N1CCN2C(=O)c3ccccc3C12c1ccc(F)cc1 (centres unmarked) [Compound 314] | 0.1 to 0.25 (≈ 0.256 to 0.639 µM) |
| Cc1nonc1C(=O)N1CCN2C(=O)c3ccccc3C21c1ccc(Cl)cc1 (centres unmarked) [Compound 335] | < 0.1 |
| O=C(c1ccno1)N1CCN2C(=O)c3ccccc3C12c1ccc(Cl)cc1 (centres unmarked) [Compound 183] | 0.1 to 0.25 (≈ 0.263 to 0.658 µM) |
| O=C(c1ccc(F)cc1)N1CCN2C(=O)c3ccccc3C12c1ccc(OCCCCl)cc1 (centres unmarked) [Compound 261] | 0.1 to 0.25 (≈ 0.215 to 0.538 µM) |
| N#CCOc1ccc(C23c4ccccc4C(=O)N2CCN3C(=O)c2ccc(F)cc2)cc1 (centres unmarked) [Compound 239] | 0.1 to 0.25 (≈ 0.234 to 0.585 µM) |
| NCCNc1ccc(C(=O)N2CCN3C(=O)c4ccccc4C23c2ccc(Cl)cc2)cn1 (centres unmarked) [Compound 320] | 0.25 to 1 (≈ 0.558 to 2.23 µM) |
| CCC(=O)N1CCN2C(=O)c3ccccc3C12c1ccc(C(F)(F)F)cc1 (centres unmarked) [Compound 305] | 0.25 to 1 (≈ 0.668 to 2.67 µM) |
| N#CCCCOc1ccc(C23c4ccccc4C(=O)N2CCN3C(=O)c2ccc(F)cc2)cc1 (centres unmarked) [Compound 260] | 0.1 to 0.25 (≈ 0.22 to 0.549 µM) |
| Cn1cc(C(=O)N2CCN3C(=O)c4ccccc4C32c2ccc(Cl)cc2)c(C(F)(F)F)n1 (centres unmarked) [Compound 333] | < 0.1 |

same assay, conditions: human respiratory syncytial virus, HEp-2, 120 h; RSV A2 in HEp2 cells, CPE assay, MTT, approx. 5 days; read-out: Activity Range (RSV A2 antiviral EC50), compounds of Table 3

| Structure (SMILES) | EC50 [µg/mL] |
| --- | --- |
| O=C(c1csc(-c2ccncc2)n1)N1CCN2C(=O)c3ccncc3C12c1ccc(Cl)cc1 (centres unmarked) [Compound 457] | 0.25 to 1 (≈ 0.527 to 2.11 µM) |
| O=C1c2ccncc2C2(c3ccc(Cl)cc3)N1CCN2C(=O)c1ccnn1-c1ccccc1 (centres unmarked) [Compound 423] | 0.25 to 1 (≈ 0.548 to 2.19 µM) |
| O=C(c1cccnc1)N1CCN2C(=O)c3ccncc3C12c1ccc(Cl)cc1 (centres unmarked) [Compound 363] | < 0.1 |
| O=C(c1ccc(F)nc1)N1CCN2C(=O)c3cnccc3C12c1ccc(Br)cc1 (centres unmarked) [Compound 367] | 0.25 to 1 (≈ 0.552 to 2.21 µM) |
| Cc1nc(-c2ccccc2)sc1C(=O)N1CCN2C(=O)c3ccncc3C21c1ccc(Cl)cc1 (centres unmarked) [Compound 468] | 0.25 to 1 (≈ 0.513 to 2.05 µM) |
| O=C(c1csc(-c2cccs2)n1)N1CCN2C(=O)c3ccncc3C12c1ccc(Cl)cc1 (centres unmarked) [Compound 377] | < 0.1 |
| O=C(c1ccno1)N1CCN2C(=O)c3ccncc3C12c1ccc(Cl)cc1 (centres unmarked) [Compound 448] | 0.1 to 0.25 (≈ 0.263 to 0.657 µM) |
| O=C(c1ccccn1)N1CCN2C(=O)c3ccncc3C12c1ccc(Cl)cc1 (centres unmarked) [Compound 455] | 0.25 to 1 (≈ 0.64 to 2.56 µM) |
| CCCCC#Cc1cncc(C(=O)N2CCN3C(=O)c4ccncc4C23c2ccc(Cl)cc2)c1 (centres unmarked) [Compound 408] | 0.25 to 1 (≈ 0.531 to 2.12 µM) |
| O=C1c2ccncc2C2(c3ccc(Cl)cc3)N1CCN2C(=O)c1nsc(Cl)c1Cl (centres unmarked) [Compound 461] | < 0.1 |
| O=C(c1ccsc1)N1CCN2C(=O)c3ccncc3C12c1ccc(Cl)cc1 (centres unmarked) [Compound 430] | < 0.1 |
| CCCSc1ncccc1C(=O)N1CCN2C(=O)c3ccncc3C21c1ccc(Cl)cc1 (centres unmarked) [Compound 401] | 0.1 to 0.25 (≈ 0.215 to 0.538 µM) |
| O=C1c2ccncc2C2(c3ccc(Cl)cc3)N1CCN2C(=O)c1csc2ccccc12 (centres unmarked) [Compound 379] | 0.1 to 0.25 (≈ 0.224 to 0.561 µM) |
| O=C1c2ccncc2C2(c3ccc(Cl)cc3)N1CCN2C(=O)c1cccnc1Oc1ccccc1 (centres unmarked) [Compound 404] | 0.25 to 1 (≈ 0.518 to 2.07 µM) |
| Cc1cc(C(=O)N2CCN3C(=O)c4ccncc4C23c2ccc(Cl)cc2)oc1C (centres unmarked) [Compound 415] | 0.25 to 1 (≈ 0.613 to 2.45 µM) |
| Cc1cc(C(=O)N2CCN3C(=O)c4ccncc4C23c2ccc(Cl)cc2)no1 (centres unmarked) [Compound 382] | 0.25 to 1 (≈ 0.633 to 2.53 µM) |
| Cc1nc(-c2cnccn2)sc1C(=O)N1CCN2C(=O)c3ccncc3C21c1ccc(Cl)cc1 (centres unmarked) [Compound 458] | 0.1 to 0.25 (≈ 0.205 to 0.511 µM) |

| Structure (SMILES) | EC50 [µg/mL] |
| --- | --- |
| O=C(c1cccc(Cl)n1)N1CCN2C(=O)c3ccncc3C12c1ccc(Cl)cc1 (centres unmarked) [Compound 453] | < 0.1 |
| O=C(c1cncc(Br)c1)N1CCN2C(=O)c3ccncc3C12c1ccc(Cl)cc1 (centres unmarked) [Compound 405] | 0.1 to 0.25 (≈ 0.213 to 0.532 µM) |
| O=C(c1ccc(F)nc1)N1CCN2C(=O)c3cc[n+]([O-])cc3C12c1ccc(Cl)cc1 (centres unmarked) [Compound 480] | < 0.1 |
| CCSc1ncccc1C(=O)N1CCN2C(=O)c3ccncc3C21c1ccc(Cl)cc1 (centres unmarked) [Compound 397] | 0.1 to 0.25 (≈ 0.222 to 0.554 µM) |
| Cc1cc(C(=O)N2CCN3C(=O)c4ccncc4C23c2ccc(Cl)cc2)nn1C (centres unmarked) [Compound 421] | 0.25 to 1 (≈ 0.613 to 2.45 µM) |
| O=C(c1ccoc1)N1CCN2C(=O)c3ccncc3C12c1ccc(Cl)cc1 (centres unmarked) [Compound 414] | < 0.1 |
| COc1ccc(-c2cc(C(=O)N3CCN4C(=O)c5ccncc5C34c3ccc(Cl)cc3)on2)cc1 (centres unmarked) [Compound 465] | 0.25 to 1 (≈ 0.513 to 2.05 µM) |
| O=C(c1csc(-c2ccc[n+]([O-])c2)n1)N1CCN2C(=O)c3cc[n+]([O-])cc3C12c1ccc(Cl)cc1 (centres unmarked) [Compound 482] | < 0.1 |
| O=C(c1ccc(C#Cc2ccccc2)o1)N1CCN2C(=O)c3ccncc3C12c1ccc(Cl)cc1 (centres unmarked) [Compound 416] | 0.25 to 1 (≈ 0.521 to 2.08 µM) |
| O=C(c1csc(-c2ccccc2)n1)N1CCN2C(=O)c3ccncc3C12c1ccc(Cl)cc1 (centres unmarked) [Compound 391] | < 0.1 |
| CSc1ncc(Cl)c(C(=O)N2CCN3C(=O)c4ccncc4C32c2ccc(Cl)cc2)n1 (centres unmarked) [Compound 454] | 0.1 to 0.25 (≈ 0.212 to 0.529 µM) |
| O=C(c1ccc(Br)s1)N1CCN2C(=O)c3ccncc3C12c1ccc(Cl)cc1 (centres unmarked) [Compound 437] | 0.25 to 1 (≈ 0.527 to 2.11 µM) |
| Cc1oc(-c2ccccc2)cc1C(=O)N1CCN2C(=O)c3ccncc3C21c1ccc(Cl)cc1 (centres unmarked) [Compound 394] | 0.25 to 1 (≈ 0.532 to 2.13 µM) |
| CC(C)c1sc(Cl)nc1C(=O)N1CCN2C(=O)c3ccncc3C21c1ccc(Cl)cc1 (centres unmarked) [Compound 474] | 0.1 to 0.25 (≈ 0.211 to 0.528 µM) |
| O=C(c1cccs1)N1CCN2C(=O)c3ccncc3C12c1ccc(Cl)cc1 (centres unmarked) [Compound 431] | < 0.1 |
| Cc1cc(C(=O)N2CCN3C(=O)c4ccncc4C32c2ccc(Cl)cc2)c(C)o1 (centres unmarked) [Compound 412] | < 0.1 |
